# Experimental data as given in PubChem BioAssay (NCI).
#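 Exposure lasted 48 hours, with cells grown in 96-well plates and compounds tested at five concentrations. Abbreviation: GI50, concentration required for 50% inhibition of growth. TGI marks complete inhibition of growth.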
# Columns and labels:
# Assay in all cases: NCI-60 cell line screen, 48 h
# 786-0 renal = system: 786-0 renal
# A498 renal = system: A498 renal
# A549 NSCLC = system: A549 NSCLC
# ACHN renal = system: ACHN renal
# BT-549 breast = system: BT-549 breast
# CAKI-1 renal = system: CAKI-1 renal
# CCRF-CEM leukemia = system: CCRF-CEM leukemia
# COLO 205 colon = system: COLO 205 colon
# DU-145 prostate = system: DU-145 prostate
# EKVX NSCLC = system: EKVX NSCLC
# HCC-2998 colon = system: HCC-2998 colon
# HCT-15 colon = system: HCT-15 colon
# HL-60(TB) leukemia = system: HL-60(TB) leukemia
# HOP-62 NSCLC = system: HOP-62 NSCLC
# HOP-92 NSCLC = system: HOP-92 NSCLC
# HS 578T breast = system: HS 578T breast
# HT29 colon = system: HT29 colon
# KM12 colon = system: KM12 colon
# LOX IMVI melanoma = system: LOX IMVI melanoma
# M14 melanoma = system: M14 melanoma
# MALME-3M melanoma = system: MALME-3M melanoma
# MCF7 breast = system: MCF7 breast
# MDA-MB-231 breast = system: MDA-MB-231 breast
# MDA-MB-435 = system: MDA-MB-435
# MOLT-4 leukemia = system: MOLT-4 leukemia
# NCI-H226 lung = system: NCI-H226 lung
# NCI-H23 lung = system: NCI-H23 lung
# NCI-H460 lung = system: NCI-H460 lung
# NCI-H522 lung = system: NCI-H522 lung
# NCI/ADR-RES ovarian = system: NCI/ADR-RES ovarian
# OVCAR-3 ovarian = system: OVCAR-3 ovarian
# OVCAR-4 ovarian = system: OVCAR-4 ovarian
# OVCAR-5 ovarian = system: OVCAR-5 ovarian
# OVCAR-8 ovarian = system: OVCAR-8 ovarian
# PC-3 prostate = system: PC-3 prostate
# RPMI-8226 leukemia = system: RPMI-8226 leukemia
# RXF 393 renal = system: RXF 393 renal
# SF-268 CNS = system: SF-268 CNS
# SF-295 CNS = system: SF-295 CNS
# SF-539 CNS = system: SF-539 CNS
# SK-MEL-2 melanoma = system: SK-MEL-2 melanoma
# SK-MEL-28 melanoma = system: SK-MEL-28 melanoma
# SK-MEL-5 melanoma = system: SK-MEL-5 melanoma
# SK-OV-3 ovarian = system: SK-OV-3 ovarian
# SNB-19 CNS = system: SNB-19 CNS
# SNB-75 CNS = system: SNB-75 CNS
# SW-620 colon = system: SW-620 colon
# T-47D breast = system: T-47D breast
# TK-10 renal = system: TK-10 renal
# U251 CNS = system: U251 CNS
# UACC-257 melanoma = system: UACC-257 melanoma
# UACC-62 melanoma = system: UACC-62 melanoma
# UO-31 renal = system: UO-31 renal
structure (smiles),measurement,setting,value
COc1cnc2c(c1)C(=O)c1c-2n(CCCN2CCN(CCO)CC2)c(=O)c2cc([N+](=O)[O-])ccc12,GI50,786-0 renal,1.61 µM
same,TGI,786-0 renal,3.13 µM
same,GI50,A498 renal,0.794 µM
same,TGI,A498 renal,19.7 µM
same,GI50,A549 NSCLC,1.13 µM
same,TGI,A549 NSCLC,2.48 µM
same,GI50,ACHN renal,0.738 µM
same,TGI,ACHN renal,15.9 µM
same,GI50,BT-549 breast,2.9 µM
same,TGI,BT-549 breast,18.9 µM
same,GI50,CAKI-1 renal,1.34 µM
same,TGI,CAKI-1 renal,15.8 µM
same,GI50,CCRF-CEM leukemia,0.494 µM
same,TGI,CCRF-CEM leukemia,> 100 µM
same,GI50,COLO 205 colon,1.18 µM
same,TGI,COLO 205 colon,5.13 µM
same,GI50,DU-145 prostate,1.43 µM
same,TGI,DU-145 prostate,4.42 µM
same,GI50,EKVX NSCLC,1.8 µM
same,TGI,EKVX NSCLC,4.23 µM
same,GI50,HCC-2998 colon,11.7 µM
same,TGI,HCC-2998 colon,24.9 µM
same,GI50,HCT-15 colon,1.18 µM
same,TGI,HCT-15 colon,2.67 µM
same,GI50,HL-60(TB) leukemia,1.69 µM
same,TGI,HL-60(TB) leukemia,5.27 µM
same,GI50,HOP-62 NSCLC,2.76 µM
same,TGI,HOP-62 NSCLC,19.6 µM
same,GI50,HOP-92 NSCLC,13.3 µM
same,TGI,HOP-92 NSCLC,31 µM
same,GI50,HS 578T breast,14.7 µM
same,TGI,HS 578T breast,42.1 µM
same,GI50,HT29 colon,1.24 µM
same,TGI,HT29 colon,2.63 µM
same,GI50,KM12 colon,1.74 µM
same,TGI,KM12 colon,4.41 µM
same,GI50,LOX IMVI melanoma,1.08 µM
same,TGI,LOX IMVI melanoma,2.51 µM
same,GI50,M14 melanoma,0.769 µM
same,TGI,M14 melanoma,2.49 µM
same,GI50,MALME-3M melanoma,1.56 µM
same,TGI,MALME-3M melanoma,3.33 µM
same,GI50,MCF7 breast,0.142 µM
same,TGI,MCF7 breast,1.59 µM
same,GI50,MDA-MB-231 breast,1.81 µM
same,TGI,MDA-MB-231 breast,3.74 µM
same,GI50,MDA-MB-435,1.97 µM
same,TGI,MDA-MB-435,4.66 µM
same,GI50,MOLT-4 leukemia,0.552 µM
same,TGI,MOLT-4 leukemia,4.45 µM
same,GI50,NCI-H226 lung,0.964 µM
same,TGI,NCI-H226 lung,20 µM
same,GI50,NCI-H23 lung,1.27 µM
same,TGI,NCI-H23 lung,3.33 µM
same,GI50,NCI-H460 lung,0.267 µM
same,TGI,NCI-H460 lung,1.45 µM
same,GI50,NCI-H522 lung,0.499 µM
same,TGI,NCI-H522 lung,2.89 µM
same,GI50,NCI/ADR-RES ovarian,1.29 µM
same,TGI,NCI/ADR-RES ovarian,3.86 µM
same,GI50,OVCAR-3 ovarian,1.46 µM
same,TGI,OVCAR-3 ovarian,3.12 µM
same,GI50,OVCAR-4 ovarian,1.79 µM
same,TGI,OVCAR-4 ovarian,4.42 µM
same,GI50,OVCAR-5 ovarian,19.5 µM
same,TGI,OVCAR-5 ovarian,37.2 µM
same,GI50,OVCAR-8 ovarian,1.39 µM
same,TGI,OVCAR-8 ovarian,5.03 µM
same,GI50,PC-3 prostate,16.5 µM
same,TGI,PC-3 prostate,92.6 µM
same,GI50,RPMI-8226 leukemia,1.57 µM
same,TGI,RPMI-8226 leukemia,6.75 µM
same,GI50,RXF 393 renal,4.68 µM
same,TGI,RXF 393 renal,20.4 µM
same,GI50,SF-268 CNS,1.07 µM
same,TGI,SF-268 CNS,4.92 µM
same,GI50,SF-295 CNS,0.533 µM
same,TGI,SF-295 CNS,2.05 µM
same,GI50,SF-539 CNS,1.7 µM
same,TGI,SF-539 CNS,3.68 µM
same,GI50,SK-MEL-2 melanoma,18.7 µM
same,TGI,SK-MEL-2 melanoma,39 µM
same,GI50,SK-MEL-28 melanoma,2.01 µM
same,TGI,SK-MEL-28 melanoma,4.16 µM
same,GI50,SK-MEL-5 melanoma,1.44 µM
same,TGI,SK-MEL-5 melanoma,2.78 µM
same,GI50,SK-OV-3 ovarian,4.99 µM
same,TGI,SK-OV-3 ovarian,20.2 µM
same,GI50,SNB-19 CNS,2.38 µM
same,TGI,SNB-19 CNS,12.4 µM
same,GI50,SNB-75 CNS,1.64 µM
same,TGI,SNB-75 CNS,13.1 µM
same,GI50,SW-620 colon,0.326 µM
same,TGI,SW-620 colon,2.07 µM
same,GI50,T-47D breast,12.8 µM
same,TGI,T-47D breast,46.5 µM
same,GI50,TK-10 renal,2.77 µM
same,TGI,TK-10 renal,11.9 µM
same,GI50,U251 CNS,1.16 µM
same,TGI,U251 CNS,2.42 µM
same,GI50,UACC-257 melanoma,2.26 µM
same,TGI,UACC-257 melanoma,6.87 µM
same,GI50,UACC-62 melanoma,1.22 µM
same,TGI,UACC-62 melanoma,3.16 µM
same,GI50,UO-31 renal,3.32 µM
same,TGI,UO-31 renal,20.8 µM
